Patent US11452717B2, “Small molecule activators of nicotinamide phosphoribosyltransferase (NAMPT) and uses thereof” (Sanford Burnham Prebys Medical Discovery Institute, priority 2017, dated 2022)

Molecular target: NAMPT enzyme (Homo sapiens (Human), UniProt P43490)
Experiment: Enzyme Assay and NMN Detection (NAMPT reaction, fluorescence detection of NMN)
Format: biochemical
Conditions: NAMPT activation, NMN formation
Summary of the method: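 NMN formed was read at ex380/em460 after acetophenone/KOH derivatization and formic acid addition, using a same-day calibration curve. Final conditions: NAMPT 16 nM, nicotinamide 5 uM, PRPP 6.25 uM, ATP 120 uM, pyrophosphatase 0.04 U/ml, pH 7.5 HEPES buffer with MgCl2 and TCEP, 2 h at room temperature.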

Chain of NAMPT enzyme (P43490 whole entry, species assumed): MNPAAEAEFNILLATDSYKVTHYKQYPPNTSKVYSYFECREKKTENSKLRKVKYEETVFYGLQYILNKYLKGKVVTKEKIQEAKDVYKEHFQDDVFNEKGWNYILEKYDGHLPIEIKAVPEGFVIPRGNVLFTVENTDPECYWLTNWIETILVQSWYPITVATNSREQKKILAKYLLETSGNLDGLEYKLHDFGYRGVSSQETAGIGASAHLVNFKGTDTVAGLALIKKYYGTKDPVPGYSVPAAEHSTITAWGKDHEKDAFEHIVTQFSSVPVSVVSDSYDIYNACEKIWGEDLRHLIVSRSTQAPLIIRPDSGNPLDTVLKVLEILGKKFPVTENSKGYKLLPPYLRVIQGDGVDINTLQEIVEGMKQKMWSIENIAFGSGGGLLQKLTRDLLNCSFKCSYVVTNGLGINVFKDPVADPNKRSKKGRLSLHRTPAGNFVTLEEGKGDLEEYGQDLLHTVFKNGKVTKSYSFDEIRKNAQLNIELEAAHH

| EC50 (Table B-2) | Structure (SMILES) | further results |
| --- | --- | --- |
| > 20000 nM | CCOC(=O)c1ccc(NC(=O)NCc2ccnc(Cl)c2)cc1 [Ethyl 4-(3-((2-chloropyridin-4-yl)methyl)ureido)benzoate] | – |
| > 20000 nM | CCOC(=O)c1ccc(NC(=O)NCc2ccnc(F)c2)cc1 [Ethyl 4-(3-((2-fluoropyridin-4-yl)methyl)ureido)benzoate] | – |
| > 20000 nM | CCOC(=O)c1ccc(NC(=O)NCc2ccnc(OC)c2)cc1 [Ethyl 4-(3-((2-methoxypyridin-4-yl)methyl)ureido)benzoate] | – |
| > 20000 nM | CCOC(=O)c1ccc(NC(=O)NCc2ccnc(C)c2)cc1 [Ethyl 4-(3-((2-methylpyridin-4-yl)methyl)ureido)benzoate] | – |
| – | CCOC(=O)c1ccc(NC(=O)NCc2c(C)noc2C)cc1 [Ethyl 4-(3-((3,5-dimethylisoxazol-4-yl)methyl)ureido)benzoate] | EC50 (Table B-1): > 20000 nM |
| – | CCOC(=O)c1ccc(NC(=O)NCc2c[nH]nc2N)cc1 [Ethyl 4-(3-((3-amino-1H-pyrazol-4-yl)methyl)ureido)benzoate] | EC50 (Table B-1): > 20000 nM |
| > 20000 nM | CCOC(=O)c1ccc(NC(=O)NCc2ccncc2N)cc1 [Ethyl 4-(3-((3-aminopyridin-4-yl)methyl)ureido)benzoate] | – |
| > 20000 nM | CCOC(=O)c1ccc(NC(=O)NCc2ccncc2Cl)cc1 [Ethyl 4-(3-((3-chloropyridin-4-yl)methyl)ureido)benzoate] | EC50 (Table B-3): > 20000 nM |
| 100 to 2000 nM | CCOC(=O)c1ccc(NC(=O)NCc2ccncc2F)cc1 [Ethyl 4-(3-((3-fluoropyridm-4-yl)methyl)ureido)benzoate] | – |
| – | CCOC(=O)c1ccc(NC(=O)NCc2c[nH]nc2C)cc1 [Ethyl 4-(3-((3-methyl-1H-pyrazol-4-yl)methyl)ureido)benzoate] | EC50 (Table B-1): > 20000 nM |
| > 20000 nM | CCOC(=O)c1ccc(NC(=O)NCc2ccncc2C)cc1 [Ethyl 4-(3-((3-methylpyridin-4-yl)methyl)ureido)benzoate] | – |
| – | CCOC(=O)c1ccc(NC(=O)NCc2cocn2)cc1 [Ethyl 4-(3-(oxazol-4-ylmethyl)ureido)benzoate] | EC50 (Table B-1): > 20000 nM |
| – | CCOC(=O)c1ccc(NC(=O)NCc2ccnnc2)cc1 [Ethyl 4-(3-(pyridazin-4-ylmethyl)ureido)benzoate] | EC50 (Table B-3): > 20000 nM |
| – | CCOC(=O)c1ccc(NC(=O)NCc2ccccn2)cc1 [Ethyl 4-(3-(pyridin-2-ylmethyl)ureido)benzoate] | EC50 (Table B-3): > 20000 nM |
| – | CCOC(=O)c1ccc(NC(=O)NCc2cccnc2)cc1 [Ethyl 4-(3-(pyridin-3-ylmethyl)ureido)benzoate] | EC50 (Table B-3): > 20000 nM |
| – | CCOC(=O)c1ccc(NC(=S)NCc2ccncc2)cc1 [Ethyl 4-(3-(pyridin-4-ylmethyl)thioureido)benzoate] | EC50 (Table B-3): > 20000 nM |
| – | CCOC(=O)c1ccc(NC(=O)NCc2cncnc2)cc1 [Ethyl 4-(3-(pyrimidin-5-ylmethyl)ureido)benzoate] | EC50 (Table B-3): > 20000 nM |
| – | CCOC(=O)c1ccc(NC(=O)NCc2ccnc3ccccc23)cc1 [Ethyl 4-(3-(quinolin-4-ylmethyl)ureido)benzoate] | EC50 (Table B-3): > 20000 nM |
| – | CCOC(=O)c1ccc(NC(=O)NCc2ccccc2)cc1 [Ethyl 4-(3-benzylureido)benzoate] | EC50 (Table B-3): > 20000 nM |
| – | COC(=O)c1ccc(N(C)C(=O)NCc2ccncc2)cc1 [Methyl 4-(1-methyl-3-(pyridin-4-ylmethyl)ureido)benzoate] | EC50 (Table B-3): > 20000 nM |
| 100 to 2000 nM | COC(=O)c1ccc(NC(=O)c2ccc(NC(=O)NCc3ccncc3)cc2)cc1 [Methyl 4-(4-(3-(pyridin-4-ylmethyl)ureido)benzamido)benzoate] | – |
| > 20000 nM | O=C(NCc1ccncc1)Nc1ccc(S(=O)(=O)N(Cc2ccccc2)Cc2ccccc2)cc1 [N,N-Dibenzyl-4-(3-pyridin-4-ylmethyl-ureido)-benzenesulfonamide] | – |
| > 20000 nM | CN(C)C(=O)c1ccc(NC(=O)NCc2ccncc2)cc1 [N,N-dimethyl-4-(3-(pyridin-4-ylmethyl)ureido)benzamide] | – |
| 100 to 2000 nM | CN(C)S(=O)(=O)c1ccc(CNS(=O)(=O)c2ccc(NC(=O)NCc3ccncc3)cc2)cc1 [N,N-dimethyl-4-((4-(3-(pyridin-4-ylmethyl)ureido)phenylsulfonamido)methyl)benzenesulfonamide] | – |
| 100 to 2000 nM | CC(NS(=O)(=O)c1ccc(NC(=O)NCc2ccncc2)cc1)C1CCC1 (centres unmarked) [N-(1-Cyclobutyl-ethyl)-4-(3-pyridin-4-ylmethyl-ureido)-benzenesulfonamide] | – |

| EC50 (Table B-2) | Structure (SMILES) | further results |
| --- | --- | --- |
| 100 to 2000 nM | CCN1CCCC1CNS(=O)(=O)c1ccc(NC(=O)NCc2ccncc2)cc1 (centres unmarked) [N-(1-Ethyl-pyrrolidin-2-ylmethyl)-4-(3-pyridin-4-ylmethyl-ureido)-benzenesulfonamide] | – |
| 2000 to 5000 nM | CN1CCC(NS(=O)(=O)c2ccc(NC(=O)NCc3ccncc3)cc2)C1 (centres unmarked) [N-(1-Methyl-pyrrolidin-3-yl)-4-(3-pyridin-4-ylmethyl-ureido)-benzenesulfonamide] | – |
| 100 to 2000 nM | CC(NS(=O)(=O)c1ccc(NC(=O)NCc2ccncc2)cc1)c1ccccc1 (centres unmarked) [N-(1-phenylethyl)-4-(3-(pyridin-4-ylmethyl)ureido)benzenesulfonamide] | – |
| 100 to 2000 nM | O=C(NCc1ccncc1)Nc1ccc(C(=O)Nc2ccc3c(c2)OCCO3)cc1 [N-(2,3-dihydrobenzo[b][1,4]dioxin-6-yl)-4-(3-(pyridin-4-ylmethyl)ureido)benzamide] | – |
| 5000 to 20000 nM | CN(C)CCNC(=O)c1ccc(NC(=O)NCc2ccncc2)cc1 [N-(2-(dimethylamino)ethyl)-4-(3-(pyridin-4-ylmethyl)ureido)benzamide] | – |
| 100 to 2000 nM | CN(C)c1ccccc1NC(=O)c1ccc(NC(=O)NCc2ccncc2)cc1 [N-(2-(dimethylamino)phenyl)-4-(3-(pyridin-4-ylmethyl)ureido)benzamide] | – |
| 2000 to 5000 nM | O=C(NCc1ccncc1)Nc1ccc(C(=O)NCCN2CCCCC2)cc1 [N-(2-(piperidin-1-yl)ethyl)-4-(3-(pyridin-4-ylmethyl)ureido)benzamide] | – |
| < 100 nM | O=C(NCc1ccncc1)Nc1ccc(S(=O)(=O)NCc2ccccc2Cl)cc1 [N-(2-Chloro-benzyl)-4-(3-pyridin-4-ylmethyl-ureido)-benzenesulfonamide] | – |
| – | O=C(NCc1cn[nH]c1)Nc1ccc(S(=O)(=O)NCc2ccccc2Cl)cc1 [N-(2-Chloro-benzyl)-4-[3-(1H-pyrazol-4-ylmethyl)-ureido]-benzenesulfonamide] | EC50 (Table B-1): < 100 nM |
| < 100 nM | CN(Cc1ccccc1Cl)S(=O)(=O)c1ccc(NC(=O)NCc2ccncc2)cc1 [N-(2-Chloro-benzyl)-N-methyl-4-(3-pyridin-4-ylmethyl-ureido)-benzenesulfonamide] | – |
| 100 to 2000 nM | N#Cc1ccccc1CNS(=O)(=O)c1ccc(NC(=O)NCc2ccncc2)cc1 [N-(2-Cyano-benzyl)-4-(3-pyridin-4-ylmethyl-ureido)-benzenesulfonamide] | – |
| < 100 nM | CN(C)c1ccccc1CNS(=O)(=O)c1ccc(NC(=O)NCc2ccncc2)cc1 [N-(2-Dimethylamino-benzyl)-4-(3-pyridin-4-ylmethyl-ureido)-benzenesulfonamide] | – |
| 100 to 2000 nM | CN(C)CCNS(=O)(=O)c1ccc(NC(=O)NCc2ccncc2)cc1 [N-(2-Dimethylamino-ethyl)-4-(3-pyridin-4-ylmethyl-ureido)-benzenesulfonamide] | – |
| < 100 nM | CN(Cc1ccccc1F)S(=O)(=O)c1ccc(NC(=O)NCc2ccncc2)cc1 [N-(2-Fluoro-benzyl)-N-methyl-4-(3-pyridin-4-ylmethyl-ureido)-benzenesulfonamide] | – |
| 2000 to 5000 nM | O=C(NCc1ccncc1)Nc1ccc(S(=O)(=O)NCCO)cc1 [N-(2-Hydroxy-ethyl)-4-(3-pyridin-4-ylmethyl-ureido)-benzenesulfonamide] | – |
| 100 to 2000 nM | CN(CCO)S(=O)(=O)c1ccc(NC(=O)NCc2ccncc2)cc1 [N-(2-Hydroxy-ethyl)-N-methyl-4-(3-pyridin-4-ylmethyl-ureido)-benzenesulfonamide] | – |
| – | COc1ccccc1CNS(=O)(=O)c1ccc(NC(=O)NCc2cn[nH]c2)cc1 [N-(2-Methoxy-benzyl)-4-[3-(1H-pyrazol-4-ylmethyl)-ureido]-benzenesulfonamide] | EC50 (Table B-1): < 100 nM |
| < 100 nM | COc1ccccc1CN(C)S(=O)(=O)c1ccc(NC(=O)NCc2ccncc2)cc1 [N-(2-Methoxy-benzyl)-N-methyl-4-(3-pyridin-4-ylmethyl-ureido)-benzenesulfonamide] | – |
| 100 to 2000 nM | COCCNS(=O)(=O)c1ccc(NC(=O)NCc2ccncc2)cc1 [N-(2-Methoxy-ethyl)-4-(3-pyridin-4-ylmethyl-ureido)-benzenesulfonamide] | – |
| 100 to 2000 nM | COc1ccccc1NS(=O)(=O)c1ccc(NC(=O)NCc2ccncc2)cc1 [N-(2-Methoxy-phenyl)-4-(3-pyridin-4-ylmethyl-ureido)-benzenesulfonamide] | – |
| 100 to 2000 nM | Cc1ccccc1CNS(=O)(=O)c1ccc(NC(=O)NCc2ccncc2)cc1 [N-(2-Methyl-benzyl)-4-(3-pyridin-4-ylmethyl-ureido)-benzenesulfonamide] | – |
| 100 to 2000 nM | O=C(NCc1ccncc1)Nc1ccc(S(=O)(=O)NCCN2CCOCC2)cc1 [N-(2-Morpholin-4-yl-ethyl)-4-(3-pyridin-4-ylmethyl-ureido)-benzenesulfonamide] | – |
| 2000 to 5000 nM | O=C(NCc1ccncc1)Nc1ccc(S(=O)(=O)NCCN2CCCCC2)cc1 [N-(2-Piperidin-1-yl-ethyl)-4-(3-pyridin-4-ylmethyl-ureido)-benzenesulfonamide] | – |
| > 20000 nM | O=C(NCc1ccncc1)Nc1ccc(C(=O)NCc2ccccc2Cl)cc1 [N-(2-chlorobenzyl)-4-(3-(pyridin-4-ylmethyl)ureido)benzamide] | – |
| 100 to 2000 nM | O=C(NCc1ccncc1)Nc1ccc(C(=O)Nc2ccccc2Cl)cc1 [N-(2-chlorophenyl)-4-(3-(pyridin-4-ylmethyl)ureido)benzamide] | – |

| Structure (SMILES) | EC50 (Table B-2) | further results |
| --- | --- | --- |
| CN(C)S(=O)(=O)c1ccc(NC(=O)NCc2ccncc2)cc1 [N,N-Dimethyl-4-(3-pyridin-4-ylmethy-ureido)-benzenesulfonamide] | 2000 to 5000 nM | – |
| CCN(CC)C(=O)c1ccc(NC(=O)NCc2ccncc2)cc1 [N,N-diethyl-4-(3-(pyridin-4-ylmethyl)ureido)benzamide] | > 20000 nM | – |
